Drawing on PMC9016125 (The Journal of Antibiotics, 2022), this text covers Kd for one compound.

In this test the target is T1, sortase A (SrtA) (Staphylococcus aureus, UniProt Q2FV99).
T1 sequence (Q2FV99 1-206): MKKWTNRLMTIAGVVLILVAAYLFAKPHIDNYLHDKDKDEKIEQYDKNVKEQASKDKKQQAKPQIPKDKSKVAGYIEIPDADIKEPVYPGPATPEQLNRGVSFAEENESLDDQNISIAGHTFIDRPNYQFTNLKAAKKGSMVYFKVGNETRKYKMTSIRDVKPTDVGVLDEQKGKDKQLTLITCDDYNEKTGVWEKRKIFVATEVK
Description: microscale thermophoresis with labeled purified SrtA. It counts as binding. In general terms: MST reads how a fluorescent partner responds to local heating, with and without ligand.

`Nc1c(Cl)cccc1C(=O)Nc1ccccc1C(=O)O` [compound 5, 2-(2-amino-3-chloro-benzoylamino)-benzoic acid]: the affinity, expressed as Kd, was 189 µM.

The Kd is the concentration at which binding is half-saturated. The low end stands for a tighter complex, the high end for a looser complex.
